# Test results taken from publication PMC9656735, “Eight Indole Alkaloids from the Roots of Maerua siamensis and Their Nitric Oxide Inhibitory Effects” (Molecules, 2022).
# Read-outs that look alike come from different tables or passages of the source.
# How the values were obtained:
# RAW 264.7 cells = assay: Cytotoxicity / cell viability by MTT assay in LPS-induced RAW 264.7 cells; type: cell-based; settings: for Cytotoxicity: MTT, concentration at which cell viability was lower than 80%, maximum concentration 200 μM
# Method: (§1) The compounds were dissolved in DMSO to prepare their stock solutions at a concentration of 50 mM. Then, they were pipetted to mix in the culture medium to make the maximum tested concentration of 200 µM containing 0.4% DMSO. Then, the 200 µM tested solution was further diluted with a culture medium, giving the concentration series of 200, 100, 50, and 25 μM (2-fold dilution). The working concentrations of the test compounds [25, 50, 100, and 200 μM] were used to treat cells.
# (§2) Raw264.7 cells were seeded at a density of 5 × 10^4 cells/well in a 96-well plate. The cells were pre-treated with various concentrations of samples for 24 h. Cells were induced with 100 ng/mL LPS for 24 h. The culture supernatant was collected for NO production analysis, and cells were further examined for their viability.
# The cell viability was measured by the MTT assay. An MTT solution (1 mg/mL) was added to each well and incubated for 4 h at 37 °C. Then, the MTT solution was removed, and the formazan production was dissolved with DMSO. The absorbance was measured at 570 nm using a microplate reader (BioTeK, Santa Clara, CA, USA).
# [1] = system: nitric oxide (NO) production in LPS-induced RAW 264.7 cells; assay: Inhibition of nitric oxide production in LPS-induced RAW 264.7 cells (Griess reagent); type: cell-based; settings: for IC50: Mus musculus; for nitric oxide inhibition activity compared with indomethacin: in words
# Method: as §1, §2
# The NO production was measured using a Griess reagent kit (Invitrogen, Thermo Fisher Scientific, Waltham, MA, USA). Ninety µL of culture media were mixed with 10 µL of Griess reagent and incubated at room temperature for 30 min, and then the NO concentration was measured at 540 nm using the microplate reader. The percentage of NO production was calculated as Equation (1). (1) %NO production = A/B × 100
# A: The concentration of the nitric oxide in the cells induced by LPS and with sample pre-treatment [LPS (+), sample (+)].
# B: The concentration of nitric oxide in the cells induced by LPS without sample pre-treatment [LPS (+), sample (−)].
# The NO inhibitory activity was expressed as half the maximum (IC50) of the inhibitory concentration calculated using GraphPad Prism 9.
# NO = system: NO; parameters: method as in PMID 32163787; settings: read-out: NO inhibitory activity IC50; cited from earlier work
# [2] = RAW264.7, pre-treated 24 h, then 100 ng/mL LPS 24 h, Mean ± SD from three independent experiments, tested 25-200 μM, read-out: IC50 of NO Inhibition
Compound,Cytotoxicity (RAW 264.7 cells),"IC50 ([1]; RAW264.7, above the 200 μM maximum tested concentration, Mean ± SD, read-out: IC50 of NO Inhibition (value in parentheses, above the maximum tested concentration)) [µM]","IC50 [1, 2] [µM]",inhibition of nitric oxide production (in words) [1],nitric oxide inhibition activity compared with indomethacin [1],cytotoxicity (in words) (RAW 264.7 cells; IC50 of NO inhibition could not be determined),IC50 (NO) [µM]
"CO/N=C(\SC)C(=O)c1c[nH]c2cc(OC)ccc12 [Compound 4, methyl (Z)-N-methoxy-2-(6-methoxy-1H-indol-3-yl)-2-oxoethanimidothioate]",>200 µM,> 200,> 200,,,,
"COc1ccc2cc(C3=C(c4c[nH]c5cccc(OC)c45)N=C3[S+](C)[O-])[nH]c2c1 (stereo not drawn) [Compound 7, 4-methoxy-3-[3-(6-methoxy-1H-indol-2-yl)-2-(methylsulfinyl)azet-4-yl]-1H-indole]",toxicity at 100 μM,,31.1 ± 1.8,inhibited nitric oxide production,stronger than indomethacin,,
"CO/N=C(/Cc1c[nH]c2cc(OC)ccc12)SC [Compound 3, methyl (Z)-N-methoxy-2-(6-methoxy-1H-indol-3-yl)ethanimidothioate]",toxicity at 100 μM,,,,,,
"COc1ccc2c(c1)NC(=O)[C@]2(O)CC#N [Compound 1, (+)-(S)-2-(3-hydroxy-6-methoxy-2-oxoindolin-3-yl)acetonitrile]",>200 µM,,186 ± 22.5,inhibited nitric oxide production,as strong as indomethacin,,
"COc1ccc2c(CC#N)c([S+](C)[O-])[nH]c2c1 (stereo not drawn) [Compound 2, 2-(6-methoxy-2-(methylsulfinyl)-1H-indol-3-yl)acetonitrile]",>200 µM,,187 ± 23.1,inhibited nitric oxide production,as strong as indomethacin,,
"COc1ccc2cc(C3=C(c4c[nH]c5cccc(OC)c45)N=C3SC)[nH]c2c1 [Compound 6, 4-methoxy-3-[3-(6-methoxy-1H-indol-2-yl)-2-(methylthio)azet-4-yl]-1H-indole]",toxicity at 100 μM,,,,,too cytotoxic,
isatindigoside G,,,,,,,67.3 ± 5.5
"COc1ccc2c(c1)c(CC(=O)O)c(C)n2C(=O)c1ccc(Cl)cc1 [indomethacin, reference compound]",>200 µM,,150 ± 16,,,,
isatindigoside F,,,,,,,70.3 ± 6.9
"COc1cccc2[nH]c3c(C#N)c4c(cc3c12)[nH]c1cc(O)ccc14 [Compound 8, 9-hydroxy-1-methoxy-5,11-dihydroindolo[3,2-b]carbazole-6-carbonitrile]",>200 µM,,56.7 ± 3.8,inhibited nitric oxide production,stronger than indomethacin,,
"CO/N=C(\C=C1\C(=O)Nc2cc(OC)ccc21)SC [Compound 5, methyl (E)-N-methoxy-2-[(E)-6-methoxy-2-oxindolin-3-ylidene]ethanimidothiolate]",>200 µM,,92.2 ± 8.9,inhibited nitric oxide production,stronger than indomethacin,,
